The values that follow come from US5175100A, “Stereospecific resolution by hydrolysis of esters of 2-arylpropionic acids by liver enzymes” (Rhone-Poulenc, Inc., priority 1991, dated 1992).

What all share (format): biochemical
In test [1] the test system is Liver acetone powder from Calf. Put plainly: Hydrolysis of ketoprofen esters by calf liver acetone powder. The following applies: Calf powder, 0.2 millimole ester, procedure of Example 1. How it is done: (§1) A solution of 50 mg of ketoprofen methyl ester in 0.2 ml of ethanol was added to 10 mg of each of liver acetone powder from various animal sources (described in Table 1) in 5 ml of 0.1M potassium phosphate buffer (pH 7.0) After shaking at room temperature for 24 hours, the reaction mixtures were acidified to pH 2.0 with 6(N) HCl and extracted with 10 ml of ethyl acetate. A portion of the ethyl acetate extract was analyzed by HPLC on a Partisil 5 ODS-3 RAC column (9.4 mm×100 mm, Whatman) using a mixture of methanol and 10 mM ammonium dihydrogen phospate (9:1) and monitored by UV at 254 nm to determine the percentages of acid produced in the reaction.
(§2) To determine the percentage of R- and S-acid, a portion of the ethyl acetate extract was converted to the amide derivative of the acid produced with R(+)-1-phenylethylamine as follows. The ethyl acetate extract (5 ml) was dried over sodium sulfate, filtered and cooled to 0° C. To the cold solution was added 0.2 ml of N-methylmorpholine followed by 0.2 ml of isobutyl chloroformate. After gentle shaking at 0° C. for 10 minutes, 0.2 ml of R(+)-1-phenylethylamine was added and the shaking was continued at 0° C. for 5 minutes and at room temperature for another 5 minutes. The reaction mixture was washed successively with water (5 ml), 1(N) HCl (5 ml), and water (5 ml) to provide the amide derivative in ethyl acetate solution. The ethyl acetate solution of the amide derivative was then analyzed by HPLC on the same column and same solvent mixture but with a different composition, i.e., a ratio of 6:4, and monitored by UV to determine the percentages of R- acid and S-acids produced by hydrolysis. The enantiomeric excess (EE) is defined as the difference in percent between the percent R- acid and the percent S-acid, the higher enantiomer being reported in the parenthesis in Table I.
(§3) Several esters of ketoprofen (0.2 millimole) with various alkyl groups of varying chain length were hydrolyzed using liver acetone powders from bovine, calf and dog by the procedure described in Example 1. The reaction mixtures were analyzed by the same procedures as described in Example 1 and the results obtained are summarized in Table II.

Test [2] relates to Liver acetone powder from Dog. As to the kind of experiment: Hydrolysis of ketoprofen esters by dog liver acetone powder. The following applies: Dog powder, 0.2 millimole ester, procedure of Example 1. The procedure:
as §1, §2, §3

Test [3] relates to Liver acetone powder from Bovine. Put plainly: Hydrolysis of ketoprofen esters by bovine liver acetone powder. The following applies: Bovine powder, 0.2 millimole ester, procedure of Example 1. How it is done: as §1, §2, §3

With `CCOC(=O)C(C)c1cccc(C(=O)c2ccccc2)c1` (stereo not drawn) [C-2], in test [1], the “EE(%) of R-Acid” value is recorded as 39.2%, the “Percent of Acid R-Acid” value came to 69.6% and the “Percent of Acid S-Acid” value amounted to 30.4%. Besides, in test [2], the “EE(%) of R-Acid” value came to 65.0%, the “Percent of Acid R-Acid” value worked out at 82.5% and the “Percent of Acid S-Acid” value is 17.5%. In addition, in test [3], the “EE(%) of R-Acid” value came out at 40.6%, the “Percent of Acid R-Acid” value is on record as 70.3% and the “Percent of Acid S-Acid” value is recorded as 29.7%.
`CCCOC(=O)C(C)c1cccc(C(=O)c2ccccc2)c1` (stereo not drawn) [C-3]: in test [1], the “EE(%) of R-Acid” value came out at 38.2%, the “Percent of Acid R-Acid” value was determined as 69.1% and the “Percent of Acid S-Acid” value stood at 30.9%. Moreover, in test [2], the “EE(%) of R-Acid” value was found to be 68.2%, the “Percent of Acid R-Acid” value is on record as 84.1% and the “Percent of Acid S-Acid” value is 15.9%. In addition, in test [3], the “EE(%) of R-Acid” value stood at 41.4%, the “Percent of Acid R-Acid” value is given as 70.7% and the “Percent of Acid S-Acid” value was 29.3%.
Take `CCCCOC(=O)C(C)c1cccc(C(=O)c2ccccc2)c1` (stereo not drawn) [C-4]: the entries for the “EE(%) of R-Acid” value in test [1], in test [2] and in test [3] were 38.2%, 68.8% and 33.4%, respectively. The entries for the “Percent of Acid R-Acid” value in test [1], in test [2] and in test [3] were 65.6%, 84.4% and 66.7%, respectively. Further, the “Percent of Acid S-Acid” value in test [1] worked out at 34.4%; in test [2] it was 15.6%; in test [3], 33.3%.
Take `CCCCCCOC(=O)C(C)c1cccc(C(=O)c2ccccc2)c1` (stereo not drawn) [C-6]: in test [1], the “EE(%) of R-Acid” value was determined as 42.0%, the “Percent of Acid R-Acid” value amounted to 71.0% and the “Percent of Acid S-Acid” value stood at 29.0%. In addition, in test [2], the “EE(%) of R-Acid” value was 35.8%, the “Percent of Acid R-Acid” value is given as 67.9% and the “Percent of Acid S-Acid” value was determined as 32.1%. Besides, in test [3], the “EE(%) of R-Acid” value turned out to be 45.4%, the “Percent of Acid R-Acid” value was 72.7% and the “Percent of Acid S-Acid” value is given as 27.3%.
For the molecule `CCCCCCCCOC(=O)C(C)c1cccc(C(=O)c2ccccc2)c1` (stereo not drawn) [C-8], the “EE(%) of R-Acid” value in test [1] is recorded as 24.2%; in test [2] it was 41.4%; in test [3], 55.8%. Also, the “Percent of Acid R-Acid” value in test [1] amounted to 62.1%; in test [2], 70.7%; in test [3], 77.9%. The “Percent of Acid S-Acid” value in test [1] is listed as 37.9%; in test [2], 29.3%; in test [3] it was 22.1%.
